Data from a melting point compilation (Tetko et al.; mined from patent text by program, amines drawn as free bases though some values may be those of a salt).

SMILES | melting point
C#CCC#CCON1C(=O)c2ccccc2C1=O | 134 to 135 °C
C=Cn1cc(C(=O)OCC)c(=O)c2cc(F)c(N3CCN(C)CC3)cc21 | 186 to 188 °C
CN1CCN(C2=Nc3ccc(Cl)cc3Cn3cccc32)CC1 | 186 to 188 °C
O=C1CCCCCCCCCCC=CCCCCCCCCCCC1O (centres undefined) | 78 °C
Oc1cc(Cl)cc2c1CCC2 | 56 to 59 °C
C#CC(O)c1csc(C)n1 (centres undefined) | 94 °C
Cn1nc(C(F)(F)F)cc1-c1ccc(F)cc1F | 37 to 38 °C
CCCSc1cc(-c2c[nH]nc2C(F)(F)F)ccc1C(=O)OC | 114 to 116 °C
CNc1ccc(-c2[nH]cnc2-c2cc(OC)cc(OC)c2)cc1F | 182 to 184 °C
Cc1ccc([N+](=O)[O-])cc1S(=O)(=O)n1ccnc1C | 159 to 161 °C
O=C(O)C1(Cn2cnnn2)CCCC1 | 192 to 196 °C
NC(=O)N1CCN(CC(O)COc2ccc(O)cc2)CC1 (centres undefined) | 198 to 201 °C
CC(Oc1cc(O)ccc1[N+](=O)[O-])C(=O)O (centres undefined) | 190 to 195 °C
Cc1cc(O)nc(C(Cl)(Cl)Cl)n1 | 173 to 174 °C
Cc1n[nH]c(=O)cc1-c1ccc(OC2CCN(C(=O)OC(C)(C)C)CC2)cc1 | 184 to 186 °C
CS(=O)CC(=O)c1ccccc1N (centres undefined) | 99 to 100 °C
CCOC(=O)C1=C(C)NC(O)(C(F)(F)F)C(C(=O)OCC)C1c1cccc([N+](=O)[O-])c1 (centres undefined) | 120 to 121 °C
O=C(Cc1ccccc1)OCCOC(=O)NC1(C(=O)O)CC1 | 142 to 146 °C
COCCOc1ccc(C#CC2(O)CN3CCC2CC3)c(CO)c1 (centres undefined) | 98.5 to 100 °C
CC(C)[C@]1(CO)CCC(C)(C)C(=O)O1 | 178 to 181 °C

SMILES | melting point
CCN1c2ncc(C=O)cc2C(=O)N(C)c2ccc(F)nc21 | 133 to 134 °C
NCC1Cc2cc(-c3ccccc3F)cc(F)c2O1 (centres undefined) | > 250 °C
OCc1ccc(-c2ccc(-c3cn([C@H]4CN5CCC4CC5)nn3)s2)cc1 | 253 °C
COC(=O)c1cc(C)c(-n2c(C)ccc2C)c(C)c1 | 104 to 106 °C
COc1cc(F)c(F)cc1OCCN | 44 to 46 °C
CC(=O)OC1CSC(Oc2cc(F)cnc2C#N)C(OC(C)=O)C1OC(C)=O (centres undefined) | 150 °C
CC(C)C1Cc2cc(OCC(=O)O)cc(Cl)c2C1=O (centres undefined) | 126 to 128 °C
O=c1oc2ccccc2c(O)c1CCCOc1ccccc1 | 125 to 126 °C
O=C1OC(CN2CCC(n3c(=O)[nH]c4ccccc43)CC2)CN1c1ccccc1 (centres undefined) | 210 to 212 °C
O=C(CCCCCBr)Nc1ccc(O)cc1F | 66 to 69 °C
COc1ccc([N+](=O)[O-])cc1N1CCN(C(=O)OC(C)(C)C)CC1 | 136 to 137 °C
Cc1cc(=O)n(-c2ccc(Cl)cc2)cn1 | 177 to 179 °C
CN(CCF)c1nc2cc(NC(=O)c3c(C(=O)N4CCOCC4)cnn3C)ccn2n1 | 144 to 145 °C
CC(O)(C#CI)c1ccc(OC(F)(F)F)cc1 (centres undefined) | 75 to 76 °C
Cn1nc(C(F)(F)F)c(CSC2=NOC(C)(C)C2)c1OC(F)F | 39 to 40 °C
c1ccc2nc3c(nc2c1)OCC1CCCCN31 (centres undefined) | 141 to 143 °C
CNc1nc(-c2ccc(F)cc2)cc(C(C)C)n1 | 75 to 76 °C
COc1cc(Nc2ccnc(Nc3cc(OC)c(OC)c(OC)c3)n2)cc(OC)c1 | 180 °C
COc1nc(N)nc2c1ncn2[C@@H]1O[C@H](CO)[C@@H](O)[C@@]1(C)F | 199 to 202 °C
CC(C)=CCN1c2ccccc2NC(=O)C1(C)C | 146 to 147 °C

Further lines, results first:

melting point | SMILES
203 to 204 °C | Cc1c(CO)cccc1NC(=O)CN1C[C@@H](C)N(c2ncnc3sccc23)[C@@H](C)C1
155 to 157 °C | O=C(O)COc1cccc2c(CC(O)CCC(c3ccccc3)c3ccccc3)coc12 (centres undefined)
176 to 177 °C | COC(=O)c1ccccc1S(=O)(=O)NC(=O)c1cc(C)n(C)n1
243 to 245 °C | N#Cc1cccc(S(=O)(=O)N2CCn3c(c(C(N)=O)c(Cl)c3-c3ccccc3)C2)c1
110 to 111 °C | Cc1c(Br)cc(C(C)(CO)c2ccc(C(C)C)cc2)c(O)c1C (centres undefined)
193 to 194 °C | COc1ccc(NC(=S)NC(NC(=O)c2ccc(C)cc2)C(F)(F)F)cc1 (centres undefined)
136 to 139 °C | CC[C@@H](c1ccccc1)N(Cc1ccc(C(=O)NCC(=O)O)cc1)S(=O)(=O)c1ccc(Cl)cc1
305 to 307 °C | O=c1cc(-c2ccncc2)nc2n1CC(O)CN2CCCc1ccccc1F (centres undefined)
163 to 164 °C | O[C@H]1c2cc(OCc3ccc4cc(F)ccc4n3)ccc2OC[C@H]1Oc1cccnc1
209 to 210 °C | CCCCOc1c(CNC(=O)OC(C)(C)C)n(CC(C)C)c(=O)c2ccc(C(N)=NO)cc12
195 to 196 °C | FC(F)(F)c1cccc2nc3c4ccccc4c4ccccc4c3nc12
127 °C | CC(C)(C)OC(=O)N1CCN(c2ccc(NC(=O)Nc3cc(Cl)ccc3NS(C)(=O)=O)cc2)CC1
221 to 223 °C | COC(=O)Nc1cn2ccc(Sc3ccccc3)cc2n1
199 to 201 °C | CCCc1c(OC)n2c3c(=O)n(C)c(=O)n(C)c3nc2n(Cc2ccccc2)c1=O
206 to 208 °C | Cc1c(-c2ccc3sc(=O)n(C)c3c2)nc2ccccn12
186 to 187 °C | COC(=O)c1ccccc1S(=O)(=O)NC(=O)Nc1nnc(SC)n(C)c1=O
199 to 200 °C | COC(=O)c1ccc(Cn2c(C(=O)Nc3nc(-c4cc(OC)c(Cl)cc4OC)c(CCC4CCCCC4)s3)cc3cc(C)cc(C)c32)cc1
160 to 161 °C | O=C(O)CCCc1ccc(-c2ccc([N+](=O)[O-])cc2)cc1
167 to 168 °C | CC1CC(=O)NN=C1c1ccc(-n2ccc(CN(C)C)c2)cc1 (centres undefined)
81 to 83 °C | CN(CCCCc1ccccc1)CCCc1ccccc1

melting point | SMILES
300 °C | Cc1nc2ccccc2n1Cc1ccc(C(=O)O)cc1
71 to 73 °C | O=S(=O)(F)C=CNc1ccc(C(F)(F)F)cc1
89 to 92 °C | CCCCc1nn(CC(=O)c2ccccc2)c(=O)n1Cc1ccc(-c2ccccc2-c2nnn[nH]2)cc1
258 to 260 °C | Cc1nn(C)c(-c2ccccc2)c1NC(N)=S
49 to 50 °C | CCCCCCCCCCCCCCCCCCOc1cc(OCCCOc2ccccc2OCc2ccccc2)cc(C(=O)OCc2ccccc2)c1
77 to 79 °C | OC1CN(CCC#Cc2ccccc2)CCC1c1cccc(C(F)(F)F)c1 (centres undefined)
180 °C | CCCc1nc(SC)c(C=O)n1Cc1ccc(-c2ccccc2S(=O)(=O)NC(=O)NCc2ccccc2)cc1
250 to 251 °C | Cc1ccc(-c2cc(S(=O)(=O)c3ccc(N)cc3)cc(N3CCCC3)n2)cc1
167 to 169 °C | COC(=O)c1ccc(NC(=O)C=C(C)c2cc(C(C)C)c(C(C)C)o2)cc1
243 to 246 °C | N#CC(C(=O)Nc1ccccc1)C(=O)c1nn(-c2ccccc2)c2c1COc1ccc(Cl)cc1-2 (centres undefined)
165 to 166 °C | COc1ccc(NC(=O)N(Cc2ccccc2)Cc2ccccn2)c(NC(=O)c2cc(C(C)(C)C)c(O)c(C(C)(C)C)c2)c1
173 to 175 °C | CCC(=O)NC1(c2ccc(C(C)C)cc2OC(=O)CC)C(=O)c2ccccc2C1=O
75 to 78 °C | CCCCc1oc2ccc(C(=O)OC)cc2c1C(=O)c1ccc(OC)cc1
256 to 257 °C | CC(C)(C)OC(=O)Nc1cc(-c2nnc(CCc3cccc(F)c3)o2)ccn1
160 °C | CCCCc1nc(Cl)c(CC(=O)OCC)c(Cc2ccc(-c3ccccc3-c3nnn[nH]3)cc2)n1
189 to 191 °C | Cc1cc(Nc2ncnc3ccn(CCNC(=O)C(C)(C)C)c23)ccc1Oc1cccc2sncc12
232 to 235 °C | Cc1cc2c(-c3cccc(/C=C/C=O)c3)c(CC(=O)Nc3ccc(F)cc3C(F)(F)F)c(=O)oc2cc1Cl
116 °C | O=C(Nc1ccccc1S(=O)(=O)c1ccccc1)N[C@@H](Cc1ccc(NCc2c(Cl)cccc2Cl)cc1)C(=O)O
125 to 126 °C | CCc1ccc2c(c1)CC(=O)N2c1c(C)cccc1Cl
127 °C | CCCCN(CCCOc1ccc2ccccc2c1)c1ccc(OC)cc1

melting point | SMILES
240 to 242 °C | CCOc1ccc(-c2nc(-c3cccc(C(C#N)C(=O)OC)n3)cs2)cc1OCC (centres undefined)
251 °C | Oc1nc(S)nc2c(-c3ccccc3)cnn12
177 to 178 °C | CC(C)(C)C(NC(=O)c1ccc(I)cc1)NS(=O)(=O)Nc1cccnc1 (centres undefined)
165 to 166 °C | CS(=O)(=O)c1ccc(Oc2cc(OC3CCOCC3)c3[nH]c(C4=NCC(CCO)S4)cc3c2)nc1 (centres undefined)
122 to 124 °C | COC(=O)CNC(=O)c1cccc(NC(=O)CCl)c1
110 °C | CCCCNS(=O)(=O)c1cc(C(=O)Cl)ccc1Cl
99 °C | CSc1ncc(-c2ccccc2)c(Cl)n1
142 to 145 °C | CC(c1ccc(C(=O)N(C)C2CCCCC2)cc1)n1cnc2ccccc21 (centres undefined)
168 to 169 °C | CC(C)CCSc1cc(C(=O)O)cc(S(=O)(=O)Cl)c1Oc1ccccc1
154 to 156 °C | CC(C)(C)OC(=O)NC1CCCCCC=CC2CC2(C(=O)NS(=O)(=O)C2CC2)NC(=O)C2CC(OC(=O)c3ccc(CC(=O)O)cc3)CN2C1=O (centres undefined)
232 to 235 °C | COc1cc(C2CCN(C)CC2)ccc1-c1nc2c(N[C@H]3[C@@H](C(N)=O)[C@@H]4C=C[C@H]3C4)c(Cl)cnc2[nH]1
88 to 90 °C | CC(=O)c1cc(OCc2ccccc2)cc(NC(=O)C(C)(C)Br)c1O
129 to 130 °C | CCCOCCOC(=O)C1=C(C)NC(C)=C(c2nc(CCl)no2)C1c1cccc([N+](=O)[O-])c1 (centres undefined)
143 to 144 °C | O=C(N1CCN(c2ccncc2Cl)CC1)N1CCN(S(=O)(=O)c2ccc(F)cc2)CC1
188 to 189 °C | CC(=O)Nc1ccc(CC(=O)NCCc2ccc3[nH]cc(CC#N)c3c2)cc1
123 to 124 °C | C/C(=C\C(=O)O)c1cnn(C)c1-c1ccc(F)cc1
199 to 200 °C | CS(=O)(=O)Nc1cc2occ(C=NO)c(=O)c2cc1Oc1ccccc1
211 °C | Cn1ccc2c(NC(=O)c3ccccc3O)cccc21
133 to 136 °C | O=C1Cc2cccc(-c3ccccc3)c2C1
